Measurements as given in publication PMC10620940 (ACS Omega, 2023).
Where two headings read alike, the source gives them in different places.

Assays:
SARS-CoV-2 [1] = details: SARS-CoV-2-infected mice; cited from earlier work
SARS-CoV-2 PL^pro = details: in vitro SARS-CoV-2 PL^pro; cited from earlier work
in vitro = details: human, CC50, U2-OS ACE2 GFP cells
SARS-CoV-2 [2] = details: A549 + ACE2 cells, pretreatment; cited from earlier work
[3] = tested on: SARS-CoV-2 strain BetaCoV/France/IDF0372/2020; assay: microbe, parasite or virus in culture; details: Severe acute respiratory syndrome coronavirus 2, U2OS
SARS-CoV-2 [4] = details: cited from earlier work

| Compound | viral load in the lungs (SARS-CoV-2 [1]) | IC50 (SARS-CoV-2 PL^pro) [nM] | CC50 (in vitro) [nM] | IC50 (SARS-CoV-2 [2]) [nM] | IC50 [3] [nM] | IC50 (SARS-CoV-2 [4]) [nM] |
| --- | --- | --- | --- | --- | --- | --- |
| COc1ccc2nc3cc(Cl)ccc3c(Nc3cc(CN4CCCC4)c(O)c(CN4CCCC4)c3)c2n1 [7g, pyronaridine] | reduces viral load | 1800 | 4700 | 230 | 420 |  |
| CCN(CC)CCCC(C)Nc1c2ccc(Cl)cc2nc2ccc(OC)cc12 (centres unmarked) [quinacrine] |  |  |  | 190 | 2570 |  |
| CCC(CC)COC(=O)[C@H](C)N[P@](=O)(OC[C@H]1O[C@@](C#N)(c2ccc3c(N)ncnn23)[C@H](O)[C@@H]1O)Oc1ccccc1 [remdesivir] |  |  |  |  |  | 20 to 50 |
